The results in this text go back to paper PMC7360687, “The Regulator PltZ Regulates a Putative ABC Transporter System PltIJKNOP of Pseudomonas aeruginosa ATCC 27853 in Response to the Antimicrobial 2,4-Diacetylphloroglucinol” (Frontiers in Microbiology, 2020).

The target in the assay is T1, PltZ.
T1 construct: full gene cloned in pET-28b-derived vector, E. coli BL21 (DE3), Ni-NTA purified (His tag implied)
The assay can be described thus: isothermal titration calorimetry. The arrangement: species or system Pseudomonas aeruginosa. The conditions noted are these: 25 °C; 20 mM Tris pH 8.0, 100 mM NaCl; independent binding model; read-out: binding constant. (Isothermal titration calorimetry measures the heat released or taken up as one component is titrated into another.)

In the case of `CC(=O)c1c(O)cc(O)c(C(C)=O)c1O` [2,4-diacetylphloroglucinol], the Kd is about 190 nM.
